Values joined by “and” are separate entries in the source; they are usually repeats but may differ in a detail not shown here. Equal entries are not always repeated. Numbers after ± are expanded uncertainties.
Assay: molar heat capacity at constant volume
Details: Fluid (supercritical or subcritical phases), Vacuum adiabatic calorimetry

FC(F)C(F)(F)F [pentafluoroethane]
molar heat capacity at constant volume (391 K, Mass density=403.1 kg/m3): 115.12 ± 2.3 J/K/mol | molar heat capacity at constant volume (391 K, Mass density=502.4 kg/m3): 111.21 ± 2.2 J/K/mol | molar heat capacity at constant volume (391 K, Mass density=584.7 kg/m3): 113.95 ± 2.3 J/K/mol | molar heat capacity at constant volume (391 K, Mass density=687.1 kg/m3): 114.69 ± 2.3 J/K/mol | molar heat capacity at constant volume (391 K, Mass density=772 kg/m3): 114.4 ± 2.3 J/K/mol | molar heat capacity at constant volume (391 K, Mass density=880.2 kg/m3): 113.13 ± 2.3 J/K/mol | molar heat capacity at constant volume (391 K, Mass density=971.8 kg/m3): 113.73 ± 2.3 J/K/mol and 111.12 ± 2.2 J/K/mol | molar heat capacity at constant volume (392 K, Mass density=403.1 kg/m3): 113.94 ± 2.3 J/K/mol | molar heat capacity at constant volume (392 K, Mass density=502.4 kg/m3): 111.32 ± 2.2 J/K/mol | molar heat capacity at constant volume (392 K, Mass density=584.7 kg/m3): 113.44 ± 2.3 J/K/mol | molar heat capacity at constant volume (392 K, Mass density=687.1 kg/m3): 113.17 ± 2.3 J/K/mol | molar heat capacity at constant volume (392 K, Mass density=772 kg/m3): 112.45 ± 2.3 J/K/mol | molar heat capacity at constant volume (392 K, Mass density=880.1 kg/m3): 111.39 ± 2.2 J/K/mol | molar heat capacity at constant volume (392 K, Mass density=971.7 kg/m3): 108.99 ± 2.2 J/K/mol and 110.55 ± 2.2 J/K/mol | molar heat capacity at constant volume (393 K, Mass density=403.1 kg/m3): 113.84 ± 2.3 J/K/mol | molar heat capacity at constant volume (393 K, Mass density=502.3 kg/m3): 114.93 ± 2.3 J/K/mol | molar heat capacity at constant volume (393 K, Mass density=584.7 kg/m3): 112.26 ± 2.3 J/K/mol | molar heat capacity at constant volume (393 K, Mass density=687 kg/m3): 114.98 ± 2.3 J/K/mol | molar heat capacity at constant volume (393 K, Mass density=771.9 kg/m3): 113.77 ± 2.3 J/K/mol | molar heat capacity at constant volume (393 K, Mass density=880 kg/m3): 112.82 ± 2.3 J/K/mol | molar heat capacity at constant volume (393 K, Mass density=971.6 kg/m3): 109.6 ± 2.2 J/K/mol and 110.84 ± 2.2 J/K/mol | molar heat capacity at constant volume (394 K, Mass density=403.1 kg/m3): 113.19 ± 2.3 J/K/mol | molar heat capacity at constant volume (394 K, Mass density=502.3 kg/m3): 113.53 ± 2.3 J/K/mol | molar heat capacity at constant volume (394 K, Mass density=584.6 kg/m3): 113.56 ± 2.3 J/K/mol | molar heat capacity at constant volume (394 K, Mass density=687 kg/m3): 116.48 ± 2.3 J/K/mol | molar heat capacity at constant volume (394 K, Mass density=771.9 kg/m3): 114.28 ± 2.3 J/K/mol | molar heat capacity at constant volume (394 K, Mass density=880 kg/m3): 113.31 ± 2.3 J/K/mol | molar heat capacity at constant volume (394 K, Mass density=971.6 kg/m3): 113.46 ± 2.3 J/K/mol and 112.41 ± 2.3 J/K/mol | molar heat capacity at constant volume (395 K, Mass density=403 kg/m3): 112.66 ± 2.3 J/K/mol | molar heat capacity at constant volume (395 K, Mass density=502.3 kg/m3): 112.95 ± 2.3 J/K/mol | molar heat capacity at constant volume (395 K, Mass density=584.6 kg/m3): 114.13 ± 2.3 J/K/mol | molar heat capacity at constant volume (395 K, Mass density=687 kg/m3): 114.63 ± 2.3 J/K/mol | molar heat capacity at constant volume (395 K, Mass density=771.8 kg/m3): 113.37 ± 2.3 J/K/mol | molar heat capacity at constant volume (395 K, Mass density=879.9 kg/m3): 112.11 ± 2.3 J/K/mol | molar heat capacity at constant volume (395 K, Mass density=971.5 kg/m3): 112.76 ± 2.3 J/K/mol and 111.6 ± 2.2 J/K/mol | molar heat capacity at constant volume (396 K, Mass density=403 kg/m3): 114.19 ± 2.3 J/K/mol | molar heat capacity at constant volume (396 K, Mass density=502.3 kg/m3): 115.6 ± 2.3 J/K/mol | molar heat capacity at constant volume (396 K, Mass density=584.6 kg/m3): 113.53 ± 2.3 J/K/mol | molar heat capacity at constant volume (396 K, Mass density=686.9 kg/m3): 113.17 ± 2.3 J/K/mol | molar heat capacity at constant volume (396 K, Mass density=771.8 kg/m3): 113.35 ± 2.3 J/K/mol | molar heat capacity at constant volume (396 K, Mass density=879.9 kg/m3): 112.93 ± 2.3 J/K/mol | molar heat capacity at constant volume (396 K, Mass density=971.4 kg/m3): 112.77 ± 2.3 J/K/mol and 110.2 ± 2.2 J/K/mol | molar heat capacity at constant volume (397 K, Mass density=403 kg/m3): 115.11 ± 2.3 J/K/mol | molar heat capacity at constant volume (397 K, Mass density=502.2 kg/m3): 113.37 ± 2.3 J/K/mol | molar heat capacity at constant volume (397 K, Mass density=584.5 kg/m3): 112.42 ± 2.3 J/K/mol | molar heat capacity at constant volume (397 K, Mass density=686.9 kg/m3): 113.72 ± 2.3 J/K/mol | molar heat capacity at constant volume (397 K, Mass density=771.7 kg/m3): 113.23 ± 2.3 J/K/mol | molar heat capacity at constant volume (397 K, Mass density=879.8 kg/m3): 113.97 ± 2.3 J/K/mol | molar heat capacity at constant volume (397 K, Mass density=971.3 kg/m3): 112.64 ± 2.3 J/K/mol and 111.54 ± 2.2 J/K/mol | molar heat capacity at constant volume (398 K, Mass density=403 kg/m3): 115.94 ± 2.3 J/K/mol | molar heat capacity at constant volume (398 K, Mass density=502.2 kg/m3): 111.91 ± 2.2 J/K/mol | molar heat capacity at constant volume (398 K, Mass density=584.5 kg/m3): 113.66 ± 2.3 J/K/mol | molar heat capacity at constant volume (398 K, Mass density=686.8 kg/m3): 116.24 ± 2.3 J/K/mol | molar heat capacity at constant volume (398 K, Mass density=771.7 kg/m3): 114.52 ± 2.3 J/K/mol | molar heat capacity at constant volume (398 K, Mass density=879.7 kg/m3): 113.6 ± 2.3 J/K/mol | molar heat capacity at constant volume (398 K, Mass density=971.3 kg/m3): 113.46 ± 2.3 J/K/mol and 112.92 ± 2.3 J/K/mol | molar heat capacity at constant volume (399 K, Mass density=502.2 kg/m3): 114.43 ± 2.3 J/K/mol | molar heat capacity at constant volume (399 K, Mass density=584.5 kg/m3): 115.44 ± 2.3 J/K/mol | molar heat capacity at constant volume (399 K, Mass density=686.8 kg/m3): 115.5 ± 2.3 J/K/mol | molar heat capacity at constant volume (399 K, Mass density=771.6 kg/m3): 114.85 ± 2.3 J/K/mol | molar heat capacity at constant volume (399 K, Mass density=879.7 kg/m3): 112.05 ± 2.3 J/K/mol | molar heat capacity at constant volume (399 K, Mass density=971.2 kg/m3): 112.08 ± 2.3 J/K/mol
